Measurements reported in PubChem BioAssay (NCI).
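Where inhibition never reached the appropriate level, the endpoint shown equals the highest concentration tested. Otherwise, values were interpolated linearly from a five-concentration, 48-hour dose response in 96-well plates. GI50 = concentration required for 50% inhibition of growth. TGI marks complete inhibition of growth.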

How the values were obtained:
Assay in all cases: DTP human tumour cell line panel, 48 h; in the data active = GI50 below about 0.43 µM; inactive = the rest
HCT-116 colon = test system: HCT-116 colon
HCT-15 colon = test system: HCT-15 colon
IGROV1 ovarian = test system: IGROV1 ovarian
MALME-3M melanoma = test system: MALME-3M melanoma
NCI-H522 lung = test system: NCI-H522 lung
OVCAR-3 ovarian = test system: OVCAR-3 ovarian
SF-268 CNS = test system: SF-268 CNS
SK-MEL-28 melanoma = test system: SK-MEL-28 melanoma
BT-549 breast = test system: BT-549 breast
NCI/ADR-RES ovarian = test system: NCI/ADR-RES ovarian

O=C1C(=O)N(c2ccc(Cl)cc2)C(=O)C(=O)C1c1nc2ccccc2o1
> 100 µM: TGI (HCT-116 colon) | TGI (HCT-15 colon) | TGI (IGROV1 ovarian) | TGI (MALME-3M melanoma) | TGI (NCI-H522 lung) | TGI (OVCAR-3 ovarian) | TGI (SF-268 CNS) | TGI (SK-MEL-28 melanoma)

Cc1c(O)c(N=Nc2nc3ccccc3s2)c2ccccc2c1O
> 50 µM: TGI (BT-549 breast) | TGI (HCT-116 colon) | TGI (HCT-15 colon) | TGI (IGROV1 ovarian) | TGI (NCI/ADR-RES ovarian) | TGI (OVCAR-3 ovarian) | TGI (SF-268 CNS)
46.6 µM: TGI (NCI-H522 lung)
inactive: GI50 (BT-549 breast) 15.5 µM | GI50 (HCT-116 colon) 22.6 µM | GI50 (HCT-15 colon) 23.3 µM | GI50 (IGROV1 ovarian) 17.6 µM | GI50 (NCI-H522 lung) 19.1 µM | GI50 (NCI/ADR-RES ovarian) 34.3 µM | GI50 (OVCAR-3 ovarian) 12.3 µM | GI50 (SF-268 CNS) 18.2 µM

COC(=O)c1ccccc1N(C(=O)c1ccccc1)c1ccccc1C
> 100 µM: TGI (HCT-116 colon) | TGI (HCT-15 colon) | TGI (IGROV1 ovarian) | TGI (MALME-3M melanoma) | TGI (OVCAR-3 ovarian) | TGI (SF-268 CNS) | TGI (SK-MEL-28 melanoma)
86.1 µM: TGI (NCI-H522 lung)

CCCCCOCC(O)CO (stereo not drawn)
> 100 µM: TGI (HCT-116 colon) | TGI (HCT-15 colon) | TGI (IGROV1 ovarian) | TGI (MALME-3M melanoma) | TGI (OVCAR-3 ovarian) | TGI (SF-268 CNS) | TGI (SK-MEL-28 melanoma)

COc1cc(Oc2c(C)c(Cl)c(OC)c(Cl)c2OC)c2c(c1Cl)COC2=O
> 100 µM: TGI (BT-549 breast) | TGI (HCT-116 colon) | TGI (HCT-15 colon) | TGI (IGROV1 ovarian) | TGI (MALME-3M melanoma) | TGI (NCI/ADR-RES ovarian) | TGI (SF-268 CNS) | TGI (SK-MEL-28 melanoma)
33.7 µM: TGI (NCI-H522 lung)

C=C(CO)CC(O)c1cc(OC)ccc1OC (stereo not drawn)
> 100 µM: TGI (HCT-15 colon) | TGI (IGROV1 ovarian) | TGI (MALME-3M melanoma) | TGI (NCI-H522 lung) | TGI (OVCAR-3 ovarian) | TGI (SF-268 CNS) | TGI (SK-MEL-28 melanoma)

O=C(Nc1cccc2c1C(=O)c1c(NC(=O)c3ccccc3)ccc(Nc3cccc4c3C(=O)c3ccccc3C4=O)c1C2=O)c1ccccc1
> 100 µM: TGI (HCT-116 colon) | TGI (HCT-15 colon) | TGI (IGROV1 ovarian) | TGI (MALME-3M melanoma) | TGI (NCI-H522 lung) | TGI (OVCAR-3 ovarian) | TGI (SF-268 CNS) | TGI (SK-MEL-28 melanoma)

CC1(C)S[C@@H]2[C@H](N3C(=O)c4ccccc4C3=O)CN2[C@H]1NC(=O)N[C@@H]1N2C[C@@H](N3C(=O)c4ccccc4C3=O)[C@H]2SC1(C)C
81.3 µM: TGI (SF-268 CNS)
> 100 µM: TGI (HCT-116 colon) | TGI (HCT-15 colon) | TGI (IGROV1 ovarian) | TGI (MALME-3M melanoma) | TGI (NCI-H522 lung) | TGI (NCI/ADR-RES ovarian) | TGI (OVCAR-3 ovarian) | TGI (SK-MEL-28 melanoma)

BrC(Br)=C1C(=C(Br)Br)C(Br)C1Br (stereo not drawn)
6.93 µM: TGI (BT-549 breast)
1.1 µM: TGI (HCT-116 colon)
2.15 µM: TGI (OVCAR-3 ovarian)
0.299 µM: TGI (NCI-H522 lung)
1.51 µM: TGI (SF-268 CNS)
3.06 µM: TGI (SK-MEL-28 melanoma)
1.59 µM: TGI (MALME-3M melanoma)
1.73 µM: TGI (HCT-15 colon)
5.68 µM: TGI (IGROV1 ovarian)

O=C(O)C[C@@H](Cl)[C@H](NC(=O)OCc1ccccc1)C(=O)O
> 100 µM: TGI (HCT-116 colon) | TGI (HCT-15 colon) | TGI (IGROV1 ovarian) | TGI (MALME-3M melanoma) | TGI (NCI-H522 lung) | TGI (OVCAR-3 ovarian) | TGI (SF-268 CNS) | TGI (SK-MEL-28 melanoma)

COc1cc(/C=C(\NC(=O)c2ccccc2)c2nc3ccc4c(c3[nH]2)C(=O)c2ccccc2C4=O)cc(OC)c1OC
> 100 µM: TGI (HCT-116 colon) | TGI (HCT-15 colon) | TGI (IGROV1 ovarian) | TGI (MALME-3M melanoma) | TGI (NCI-H522 lung) | TGI (OVCAR-3 ovarian) | TGI (SF-268 CNS) | TGI (SK-MEL-28 melanoma)

Cc1nc2c(c(N3CCCc4ccccc43)n1)CCC2
19.6 µM: TGI (BT-549 breast)
> 100 µM: TGI (HCT-15 colon) | TGI (IGROV1 ovarian) | TGI (SF-268 CNS) | TGI (SK-MEL-28 melanoma)
inactive: GI50 (SK-MEL-28 melanoma) 11.7 µM
0.364 µM: TGI (NCI/ADR-RES ovarian)
active: GI50 (BT-549 breast) < 0.01 µM | GI50 (HCT-116 colon) < 0.01 µM | GI50 (HCT-15 colon) < 0.01 µM | GI50 (IGROV1 ovarian) 0.0249 µM | GI50 (NCI/ADR-RES ovarian) < 0.01 µM | GI50 (SF-268 CNS) 0.0102 µM
20.6 µM: TGI (HCT-116 colon)

CCCCCCCCCCCCCCCC1=NCCN1
5.09 µM: TGI (NCI/ADR-RES ovarian)
6.46 µM: TGI (MALME-3M melanoma)
29.7 µM: TGI (BT-549 breast)
4.02 µM: TGI (OVCAR-3 ovarian)
4.51 µM: TGI (IGROV1 ovarian)
3.24 µM: TGI (HCT-15 colon)
inactive: GI50 (BT-549 breast) 6.39 µM | GI50 (HCT-15 colon) 1.61 µM | GI50 (IGROV1 ovarian) 1.96 µM | GI50 (MALME-3M melanoma) 2.38 µM | GI50 (NCI/ADR-RES ovarian) 2.16 µM | GI50 (OVCAR-3 ovarian) 2.01 µM | GI50 (SK-MEL-28 melanoma) 1.88 µM
3.77 µM: TGI (SK-MEL-28 melanoma)

CCN1CCC(Nc2ccnc3cc(Cl)ccc23)CC1
> 100 µM: TGI (HCT-116 colon) | TGI (HCT-15 colon) | TGI (IGROV1 ovarian) | TGI (NCI/ADR-RES ovarian) | TGI (OVCAR-3 ovarian) | TGI (SF-268 CNS)
40.4 µM: TGI (MALME-3M melanoma)
33.5 µM: TGI (SK-MEL-28 melanoma)
inactive: GI50 (HCT-116 colon) 8.82 µM | GI50 (HCT-15 colon) 30.1 µM | GI50 (IGROV1 ovarian) 11.7 µM | GI50 (MALME-3M melanoma) 20.7 µM | GI50 (NCI/ADR-RES ovarian) 44.8 µM | GI50 (OVCAR-3 ovarian) 24.8 µM | GI50 (SF-268 CNS) 23.6 µM | GI50 (SK-MEL-28 melanoma) 18.1 µM

COC(=O)C1=C(O)[C@H](C(=O)OC)C2(O)C(C(=O)OC)[C@H](c3ccc(OC(=O)C(C)c4ccccc4)cc3)C[C@@H]1[C@@H]2C(=O)OC (stereo partly drawn)
45.1 µM: TGI (NCI-H522 lung)
21.4 µM: TGI (OVCAR-3 ovarian)
> 50 µM: TGI (BT-549 breast) | TGI (HCT-116 colon) | TGI (HCT-15 colon) | TGI (IGROV1 ovarian) | TGI (NCI/ADR-RES ovarian) | TGI (SF-268 CNS) | TGI (SK-MEL-28 melanoma)
inactive: GI50 (BT-549 breast) 19.3 µM | GI50 (HCT-116 colon) 17.3 µM | GI50 (HCT-15 colon) 18.4 µM | GI50 (IGROV1 ovarian) 26.7 µM | GI50 (NCI-H522 lung) 15.9 µM | GI50 (NCI/ADR-RES ovarian) > 50 µM | GI50 (OVCAR-3 ovarian) 9.69 µM | GI50 (SF-268 CNS) 17.2 µM | GI50 (SK-MEL-28 melanoma) 26.7 µM

O=C1C(Cl)=C(Nc2ccc(Nc3ccccc3)c(NC3=C(Cl)C(=O)c4ccccc4C3=O)c2)C(=O)c2ccccc21
3.21 µM: TGI (OVCAR-3 ovarian)
96.5 µM: TGI (SK-MEL-28 melanoma)
5.71 µM: TGI (MALME-3M melanoma)
inactive: GI50 (HCT-15 colon) 3.46 µM | GI50 (IGROV1 ovarian) 15.9 µM | GI50 (MALME-3M melanoma) 2.5 µM | GI50 (NCI/ADR-RES ovarian) 27.5 µM | GI50 (OVCAR-3 ovarian) 1.69 µM | GI50 (SF-268 CNS) 3.63 µM | GI50 (SK-MEL-28 melanoma) 32.9 µM
18.8 µM: TGI (SF-268 CNS)
> 100 µM: TGI (HCT-15 colon) | TGI (NCI/ADR-RES ovarian)
69.1 µM: TGI (IGROV1 ovarian)

COc1ccc(/C(=N\NC(=O)NN)C(c2ccc(OC)cc2)C2(O)C(=O)Nc3c(Cl)cc(Cl)cc32)cc1 (stereo not drawn)
> 100 µM: TGI (HCT-116 colon) | TGI (IGROV1 ovarian) | TGI (MALME-3M melanoma) | TGI (OVCAR-3 ovarian) | TGI (SF-268 CNS) | TGI (SK-MEL-28 melanoma)

COc1cc2c(c(OC)c1OC)-c1ccc(O)cc1[C@@H](NC(C)=O)CC2
> 100 µM: TGI (BT-549 breast) | TGI (HCT-116 colon) | TGI (HCT-15 colon) | TGI (SK-MEL-28 melanoma)
> 29.1 µM: TGI (SF-268 CNS)
6.78 µM: TGI (NCI/ADR-RES ovarian)
0.097 µM: TGI (NCI-H522 lung)
0.0513 µM: TGI (OVCAR-3 ovarian)
active: GI50 (BT-549 breast) 0.152 µM | GI50 (HCT-116 colon) 0.0395 µM | GI50 (HCT-15 colon) 0.123 µM | GI50 (IGROV1 ovarian) 0.0515 µM | GI50 (NCI-H522 lung) 0.0242 µM | GI50 (OVCAR-3 ovarian) 0.0232 µM | GI50 (SF-268 CNS) 0.0641 µM | GI50 (SK-MEL-28 melanoma) 0.0528 µM
inactive: GI50 (NCI/ADR-RES ovarian) 0.533 µM

CO[C@@H]1C=C[C@@]23c4cc5c(cc4CN(C[C@@H]2O)[C@H]3C1)OCO5
76 µM: TGI (MALME-3M melanoma)
50.7 µM: TGI (NCI-H522 lung)
> 100 µM: TGI (HCT-15 colon) | TGI (IGROV1 ovarian) | TGI (OVCAR-3 ovarian) | TGI (SF-268 CNS) | TGI (SK-MEL-28 melanoma)
